Data on five molecules can be found in paper PMC12715794, “Comparative Characterization of Oxidative Enzymes for Arabinoxylan and Protein Cross-Linking via Ferulic Acid and Tyrosine in Model Systems” (Journal of Agricultural and Food Chemistry, 2025).

Experiment [1] concerns T1, TvL; laccase from Trametes versicolor.
T1 construct: gene LCC2
Particulars: at pH and temperature optima; McIlvaine buffer.

For experiment [2], the target named is T2, AnG; glucose oxidase from Aspergillus niger (Aspergillus niger, UniProt P13006).
T2 construct: gene gox
As to the kind of experiment: ABTS-HrP-coupled spectrophotometric assay, […] nm. In kind it is biochemical. The note with it: 16 mM glucose, 1 mM ABTS, excess HrP (0.7 mg/mL); McIlvaine buffer.

The test system of experiment [3] is T1, TvL; laccase from Trametes versicolor. Particulars: at pH and temperature optima; McIlvaine buffer; enzyme alone.
The test system is the same in experiment [4]. As to the kind of experiment: HTyr-MBTH spectrophotometric assay, […] nm. In kind it is biochemical. The note with it: at pH and temperature optima; McIlvaine buffer; excess MBTH, 2% DMF.
Experiment [5] relates to T3, AbT; tyrosinase from Agaricus bisporus.
T3 construct: gene PPO3
As to the kind of experiment: HTyr-MBTH spectrophotometric assay, […] nm. It is filed as biochemical. Particulars: at pH and temperature optima; McIlvaine buffer; excess MBTH, 2% DMF.

The test system is the same in experiment [6]. As to the kind of experiment: spectrophotometric, product formation at […] nm. The note with it: at pH and temperature optima; McIlvaine buffer; enzyme alone. It is filed as biochemical.

Where a name gives a salt, the structure may show the parent alone. Read-outs that look alike come from different tables or passages of the source.

T2 sequence (P13006 23-605): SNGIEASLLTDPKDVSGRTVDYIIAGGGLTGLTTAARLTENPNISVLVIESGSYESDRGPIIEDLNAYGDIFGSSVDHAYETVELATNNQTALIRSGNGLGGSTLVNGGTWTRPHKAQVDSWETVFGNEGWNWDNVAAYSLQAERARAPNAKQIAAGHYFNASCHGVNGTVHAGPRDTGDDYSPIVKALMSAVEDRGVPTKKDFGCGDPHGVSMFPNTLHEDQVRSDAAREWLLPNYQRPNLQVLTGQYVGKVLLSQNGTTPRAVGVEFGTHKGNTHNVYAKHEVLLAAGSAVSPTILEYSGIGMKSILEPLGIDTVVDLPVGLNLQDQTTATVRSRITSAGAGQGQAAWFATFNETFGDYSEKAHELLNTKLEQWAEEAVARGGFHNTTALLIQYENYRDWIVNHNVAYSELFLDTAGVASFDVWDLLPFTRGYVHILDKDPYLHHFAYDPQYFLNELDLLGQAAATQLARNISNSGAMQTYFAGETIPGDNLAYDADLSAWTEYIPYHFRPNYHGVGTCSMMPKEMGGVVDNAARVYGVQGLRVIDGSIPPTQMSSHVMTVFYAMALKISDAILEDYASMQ

The term Km denotes the concentration of substrate that gives half-maximal velocity. Turning to `CCn1c(=NN=c2sc3cc(S(=O)(=O)O)ccc3n2CC)sc2cc(S(=O)(=O)O)ccc21` [ABTS, 2,2′-azino-bis(3-ethylbenzothiazoline-6-sulfonic acid) diammonium salt], the Km in experiment [1] worked out at 36 µM. Turning to `OC[C@H]1OC(O)[C@H](O)[C@@H](O)[C@@H]1O` (stereo partly drawn) [D-glucose], the “ABTS-HrP-coupled spectrophotometric assay, 415 nm” value in experiment [2] is recorded as “For AnG, glucose as a substrate was converted to H2O2”. Turning to `COc1cc(/C=C/C(=O)O)ccc1O` [FA, trans-ferulic acid], the Michaelis-Menten constant (Km) in experiment [3] worked out at 57 µM. Regarding `OCCc1ccc(O)c(O)c1` [HTyr, hydroxytyrosol], the Michaelis-Menten constant (Km) in experiment [4] was found to be 73 µM; in experiment [5], 44 µM. Regarding `N[C@@H](Cc1ccc(O)cc1)C(=O)O` [Y, L-tyrosine], the Km in experiment [6] was found to be 504 µM.
